The source of these data is US20250171463A1 (BIOGEN MA INC., priority 2022, published 2025).

Each structure is given as a SMILES string.

T1 sequence (Q15125 whole entry): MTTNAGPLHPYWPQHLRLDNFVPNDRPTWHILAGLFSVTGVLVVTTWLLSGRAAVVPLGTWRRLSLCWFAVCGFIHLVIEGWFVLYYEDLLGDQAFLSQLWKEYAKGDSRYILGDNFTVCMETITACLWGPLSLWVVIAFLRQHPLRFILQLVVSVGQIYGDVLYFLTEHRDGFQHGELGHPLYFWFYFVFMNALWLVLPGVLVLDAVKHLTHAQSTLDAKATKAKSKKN

The assay concerns the target T1, EBP (Homo sapiens, UniProt Q15125).
T1 construct: HEK293T cells were utilized as the source of EBP enzyme; endogenous in cells; host or cells: HEK293T
Kind of assay: EBP Functional Assay (EBP immunoaffinity LC-MS assay). It counts as biochemical. The note with it: EBP enzyme from HEK293T cells; 30 min with inhibitor, then zymosterol-d5, 37° C., 4 h; percent conversion to dehydrolathosterol-d5 by LC-APCI MRM MS. Here is the method:
The EBP immunoaffinity (IA) LC-MS assay measures the potency of small molecule inhibitors of EBP by quantifying their concentration-dependent changes in the enzyme's substrate and product using liquid chromatography atmospheric pressure chemical ionization multiple reaction monitoring mass spectrometry (LC-APCI MRM MS). HEK293T cells were utilized as the source of EBP enzyme. The enzyme was incubated with the small molecule inhibitors at variable concentrations for 30 min. Deuterated form of EBP substrate, zymosterol-d5 (Avanti Polar Lipids, Cat #700068P-1 mg), was then added and the plate was incubated at 37° C. for 4 h. Finally, the sterol isomers were extracted and injected to LC-APCI MRM MS. MRM transition used for the quantification for both zymosterol and […] (substrate and product of EBP enzymatic reaction, respectively) is 372.3-203.2, CE 30 and DP 80 in positive ion mode. Percent conversion of the zymosterol-d5 to dehydrolathosterol-d5 was used to derive IC50 curves. Tasin-1 (1′-[(4-Methoxyphenyl)sulfonyl]-4-methyl-1,4′-bipiperidine, CAS 792927-06-1) was used as the reference small molecule inhibitor.
Percent conversion versus the compound concentration data were fit to the following 4-parameter logistic model to generate IC50 curves: […]
As to `Cn1nc(C(F)(F)F)cc1S(=O)(=O)N1CCC2(CCN(C3CCOCC3)C2)CC1` [Example 40], the 50% inhibitory concentration (IC50) (in general, the concentration that gives 50% inhibition) is < 100 nM.

In the case of `Cc1cc(OC(F)(F)F)ccc1S(=O)(=O)N1CCC2(CCN(C3CCOCC3)C2)CC1` [Example 41], the IC50 was < 100 nM.

For `Cc1nc(C(F)(F)F)ccc1S(=O)(=O)N1CCC2(CCN(C3CCOCC3)C2)CC1` [Example 42], the IC50 is < 100 nM.

Consider `COc1ccc(S(=O)(=O)N2CCC3(CCN(C4CCOCC4)C3)CC2)c(C)n1` [Example 43], for which the 50% inhibitory concentration (IC50) is < 100 nM.

`Cc1ccc(S(=O)(=O)N2CC3(CN(C4CCOCC4)C3)C2)c(C)c1` [Example 44, 2-((2,4-Dimethylphenyl)sulfonyl)-6-(tetrahydro-2H-pyran-4-yl)-2,6-diazaspiro[3.3]heptane]: the IC50 is < 100 nM.

The compound `Cc1ccc(S(=O)(=O)N2CC3(CN(CC4(O)CCOCC4)C3)C2)c(C)c1` [Example 45, 4-((6-((2,4-Dimethylphenyl)sulfonyl)-2,6-diazaspiro[3.3]heptan-2-yl)methyl)tetrahydro-2H-pyran-4-ol] registered an IC50 of 100 to 250 nM.

The compound `Cn1nc(C(F)(F)F)cc1S(=O)(=O)N1CC2(CN(C3CCOCC3)C2)C1` [Example 46, 2-((1-Methyl-3-(trifluoromethyl)-1H-pyrazol-5-yl)sulfonyl)-6-(tetrahydro-2H-pyran-4-yl)-2,6-diazaspiro[3.3]heptane] returned an IC50 of 100 to 250 nM.

In turn, `COc1ccc(S(=O)(=O)N2CC3(CN(C4CCOCC4)C3)C2)c(C)n1` [Example 47] displayed an IC50 of 100 to 250 nM.

In the case of `Cc1cc(C(F)(F)F)ncc1S(=O)(=O)N1CC2(CN(C3CCOCC3)C2)C1` [Example 48], the IC50 lay in the range of 100 to 250 nM.

As to `Cc1nn(C)c(S(=O)(=O)N2CC3(CN(C4CCOCC4)C3)C2)c1C(F)F` [Example 49], the IC50 was in the range of 100 to 250 nM.

Take `Cc1cc(OC(F)(F)F)ccc1S(=O)(=O)N1CC2(CN(C3CCOCC3)C2)C1` [Example 50]: the IC50 is < 100 nM.

In the case of `Cc1nc(C(F)(F)F)ccc1S(=O)(=O)N1CC2(CN(C3CCOCC3)C2)C1` [Example 51, 2-((2-Methyl-6-(trifluoromethyl)pyridin-3-yl)sulfonyl)-6-(tetrahydro-2H-pyran-4-yl)-2,6-diazaspiro[3.3]heptane], the IC50 was < 100 nM.

With `Cc1ccc(S(=O)(=O)N2CC3(CCN(C4CCOCC4)C3)C2)c(C)c1` [Example 52, 2-((2,4-Dimethylphenyl)sulfonyl)-6-(tetrahydro-2H-pyran-4-yl)-2,6-diazaspiro[3.4]octane], the IC50 was < 100 nM.

For `Cc1cc(C)c(S(=O)(=O)N2CC3(CCN(C4CCOCC4)C3)C2)cn1` [Example 53], the IC50 is < 100 nM.

`O=S(=O)(c1ccc(OC(F)F)cc1)N1CC2(CCN(C3CCOCC3)C2)C1` [Example 54] gave a half-inhibitory concentration (IC50) of 100 to 250 nM.

For `Cn1nc(C(F)(F)F)cc1S(=O)(=O)N1CC2(CCN(C3CCOCC3)C2)C1` [Example 55], the IC50 was < 100 nM.

For `Cc1nc(C(F)(F)F)ccc1S(=O)(=O)N1CC2(CCN(C3CCOCC3)C2)C1` [Example 56], the IC50 was < 100 nM.

Regarding `Cc1cc(C(F)(F)F)ncc1S(=O)(=O)N1CC2(CCN(C3CCOCC3)C2)C1` [Example 57], the IC50 lay within 100 to 250 nM.

With `Cc1cc(OC(F)(F)F)ccc1S(=O)(=O)N1CC2(CCN(C3CCOCC3)C2)C1` [Example 58], the IC50 was < 100 nM.

Compound `Cn1nc(C2CC2)cc1S(=O)(=O)N1CC2(CCN(C3CCOCC3)C2)C1` [Example 59] gave an IC50 of 100 to 250 nM.

For the compound `Cn1nc(C(F)(F)F)cc1S(=O)(=O)N1CCC2(CN(C3CCOCC3)C2)C1` [Example 60, 6-((1-methyl-3-(Trifluoromethyl)-1H-pyrazol-5-yl)sulfonyl)-2-(tetrahydro-2H-pyran-4-yl)-2,6-diazaspiro[3.4]octane], the IC50 was < 100 nM.

Turning to `O=S(=O)(c1ccc(OC(F)F)cc1)N1[C@@H]2CC[C@H]1CC1(C2)CN(C2CCOCC2)C1` [Example 61, (1′R,5′S)-8′-((4-(Difluoromethoxy)phenyl)sulfonyl)-1-(tetrahydro-2H-pyran-4-yl)-8′-azaspiro[azetidine-3,3′-bicyclo[3.2.1]octane]], the IC50 lay in the range of 100 to 250 nM.

As for `Cc1ccc(S(=O)(=O)N2CC3(C[C@H]4CC[C@@H](C3)N4CC(C)(C)O)C2)c(C)c1` [Example 62, 1-((1′R,5′S)-1-((2,4-dimethylphenyl)sulfonyl)-8′-azaspiro[azetidine-3,3′-bicyclo[3.2.1]octan]-8′-yl)-2-methylpropan-2-ol], the IC50 was < 100 nM.

The compound `COC(C)(C)CN1CC2(C[C@H]3CC[C@@H](C2)N3S(=O)(=O)c2ccc(OC(F)F)cc2)C1` [Example 63, (1′R,5′S)-8′-((4-(Difluoromethoxy)phenyl)sulfonyl)-1-(2-methoxy-2-methylpropyl)-8′-azaspiro[azetidine-3,3′-bicyclo[3.2.1]octane]] registered an IC50 of 100 to 250 nM.

`COC(C)(C)CN1[C@@H]2CC[C@H]1CC1(C2)CN(S(=O)(=O)c2ccc(OC(F)F)cc2)C1` [Example 64, (1′R,5′S)-1-((4-(Difluoromethoxy)phenyl)sulfonyl)-8′-(2-methoxy-2-methylpropyl)-8′-azaspiro[azetidine-3,3′-bicyclo[3.2.1]octane]]: the IC50 lay in the range of 250 to 4000 nM.

In turn, `O=S(=O)(c1cc(C(F)(F)F)nn1CC1CC1)N1CC2(CN(C3CCOCC3)C2)C1` [Example 65, 2-((1-(cyclopropylmethyl)-3-(trifluoromethyl)-1H-pyrazol-5-yl)sulfonyl)-6-(tetrahydro-2H-pyran-4-yl)-2,6-diazaspiro[3.3]heptane] gave an IC50 of 250 to 4000 nM.

For `O=S(=O)(c1cc(C(F)(F)F)nn1CC1CC1)N1CC2(CN(CC3CCOCC3)C2)C1` [Example 66, 2-((1-(cyclopropylmethyl)-3-(trifluoromethyl)-1H-pyrazol-5-yl)sulfonyl)-6-((tetrahydro-2H-pyran-4-yl)methyl)-2,6-diazaspiro[3.3]heptane], the IC50 fell in the range of 250 to 4000 nM.

`Cc1nc(Br)ccc1S(=O)(=O)N1CC2(CN(C3CCOCC3)C2)C1` [Example 67, 2-((6-bromo-2-methylpyridin-3-yl)sulfonyl)-6-(tetrahydro-2H-pyran-4-yl)-2,6-diazaspiro[3.3]heptane] gave an IC50 of 250 to 4000 nM.

Consider `Cc1nc(C(F)(F)F)ccc1S(=O)(=O)N1CC2(C1)CN([C@H]1C[C@]3(CCO3)C1)C2` [Example 70, 2-((2-methyl-6-(trifluoromethyl)pyridin-3-yl)sulfonyl)-6-((4s,6s)-1-oxaspiro[3.3]heptan-6-yl)-2,6-diazaspiro[3.3]heptane], for which the IC50 is < 100 nM.

Take `Cc1nc(C(F)(F)F)ccc1S(=O)(=O)N1CC2(C1)CN([C@H]1C[C@@]3(CCO3)C1)C2` [Example 71, 2-((2-methyl-6-(trifluoromethyl)pyridin-3-yl)sulfonyl)-6-((4r,6r)-1-oxaspiro[3.3]heptan-6-yl)-2,6-diazaspiro[3.3]heptane]: the IC50 is 100 to 250 nM.

The compound `Cn1nc(C(F)(F)F)cc1S(=O)(=O)N1CC2(CN(CC3(C)CCOCC3)C2)C1` [Example 72, 2-((1-methyl-3-(trifluoromethyl)-1H-pyrazol-5-yl)sulfonyl)-6-((4-methyltetrahydro-2H-pyran-4-yl)methyl)-2,6-diazaspiro[3.3]heptane] gave an IC50 of 100 to 250 nM.

Turning to `Cc1nc(C(F)(F)F)ccc1S(=O)(=O)N1CC2(CN(CC34COC(C)(C3)C4)C2)C1` [Example 73, 2-((1-methyl-2-oxabicyclo[2.1.1]hexan-4-yl)methyl)-6-((2-methyl-6-(trifluoromethyl)pyridin-3-yl)sulfonyl)-2,6-diazaspiro[3.3]heptane], the IC50 lay in the range of 100 to 250 nM.

Turning to `Cc1nc(C(F)(F)F)ccc1S(=O)(=O)N1CC2(CN(CC34CCOC(C)(C3)C4)C2)C1` [Example 74, 2-((1-methyl-2-oxabicyclo[3.1.1]heptan-5-yl)methyl)-6-((2-methyl-6-(trifluoromethyl)pyridin-3-yl)sulfonyl)-2,6-diazaspiro[3.3]heptane], the IC50 is < 100 nM.

For the compound `Cn1nc(C(F)(F)F)cc1S(=O)(=O)N1CC2(CN(C3(C)CCOCC3)C2)C1` [Example 76, 2-((1-methyl-3-(trifluoromethyl)-1H-pyrazol-5-yl)sulfonyl)-6-(4-methyltetrahydro-2H-pyran-4-yl)-2,6-diazaspiro[3.3]heptane], the IC50 was < 100 nM.

Take `Cc1nc(C(F)(F)F)ccc1S(=O)(=O)N1CC2(CN(C3(C)CCOCC3)C2)C1` [Example 77, 2-((2-methyl-6-(trifluoromethyl)pyridin-3-yl)sulfonyl)-6-(4-methyltetrahydro-2H-pyran-4-yl)-2,6-diazaspiro[3.3]heptane]: the IC50 was < 100 nM.

Consider `Cc1nc(C(C)(F)F)ccc1S(=O)(=O)N1CC2(CN(C3CC4(COC4)C3)C2)C1` [Example 78, 2-((6-(1,1-difluoroethyl)-2-methylpyridin-3-yl)sulfonyl)-6-(2-oxaspiro[3.3]heptan-6-yl)-2,6-diazaspiro[3.3]heptane], for which the IC50 was in the range of 100 to 250 nM.

`Cc1nc(C(C)(F)F)ccc1S(=O)(=O)N1CC2(CN(C3CCOCC3)C2)C1` [Example 79]: the IC50 was < 100 nM.

`Cc1nc(C(C)(F)F)ccc1S(=O)(=O)N1CC2(CN(C3CCCOC3)C2)C1` (stereo not shown) [Example 80] showed an IC50 of 250 to 4000 nM.

Turning to `Cc1nc(C(C)(F)F)ccc1S(=O)(=O)N1CC2(CN(CC3CCOCC3)C2)C1` [Example 81], the IC50 is < 100 nM.

Consider `Cc1nc(C(C)(F)F)ccc1S(=O)(=O)N1CC2(CN(C(C)C3CCOCC3)C2)C1` (stereo not shown) [Example 82], for which the 50% inhibitory concentration (IC50) was in the range of 250 to 4000 nM.
